# Measurements: US20060030608A1, “Anti aromatase compounds pharmaceutical compositions and uses thereof” (Boehringer Ingelheim Pharmaceuticals, Inc., priority 2004, published 2006)
# Molecular target: T1, recombinant human aromatase (CYP19) (Homo sapiens, UniProt P11511)
# T1 construct: purchased GENTEST 456260; host or cells: baculovirus/insect cells
# T1 sequence (P11511 1-503): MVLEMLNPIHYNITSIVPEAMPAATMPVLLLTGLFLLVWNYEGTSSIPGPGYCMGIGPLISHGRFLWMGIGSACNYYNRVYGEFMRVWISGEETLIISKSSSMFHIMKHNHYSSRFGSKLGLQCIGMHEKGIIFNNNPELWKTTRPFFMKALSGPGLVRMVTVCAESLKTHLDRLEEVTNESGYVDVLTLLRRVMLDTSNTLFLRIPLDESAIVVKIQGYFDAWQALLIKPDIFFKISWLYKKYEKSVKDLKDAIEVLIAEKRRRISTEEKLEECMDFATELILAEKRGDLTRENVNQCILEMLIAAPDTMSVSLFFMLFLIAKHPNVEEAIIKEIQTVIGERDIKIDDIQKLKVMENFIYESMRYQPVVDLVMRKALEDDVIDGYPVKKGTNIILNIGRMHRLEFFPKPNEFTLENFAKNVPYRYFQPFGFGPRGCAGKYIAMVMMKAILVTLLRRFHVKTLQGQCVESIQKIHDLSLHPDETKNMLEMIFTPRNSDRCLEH
# Assay: aromatase (CYP19) inhibition assay, fluorometric substrate dibenzylfluorescein (DBF)
# Format: biochemical
# Conditions: recombinant human aromatase (baculovirus/insect cell expressed), test compounds 2×10^−5 to 10^−9 M, 37° C. for 30 minutes
# Experimental: Compounds of the invention were evaluated for inhibiting aromatase enzyme using the following aromatase (CYP19) inhibition assay which detects aromatase inhibitors utilizing recombinant human aromatase (baculovirus/insect cell expressed) and the fluorometric substrate dibenzylfluorescein (DBF). Aromatase will metabolize DBF to fluorescein which will give the fluorescent signal. The assay is conducted in 96-well black, Falcon plate (BD Biosciences, Cat. No. 353241) in the total volume of 100 μL per well. 40 μL of the Cofactor/Dilution buffer (1) is added to the plate followed by 10 μL of serially diluted test compounds in duplicates for final concentration of 2×10^−5 to 10^−9 M, or 10 μL of phosphate buffer for positive and background control wells. After 10 minutes of preincubation at 37° C., the reaction is initiated by adding 50 μL of prewarmed Enzyme/Substrate Mix (2) to the test compound wells, and positive control wells (maximum activity of CYP19, which represents 100%). The plate is incubated at 37° C. for 30 minutes. To stop the reaction, 37.5 μL of 2 N NaOH is added to all wells. For background controls, 50 μL of Enzyme/Substrate Mix (2) are added into background control wells. The plate is left at 37° C. incubator for 2 hours to develop adequate signal to background ratio. Fluorescence per well is measured in the fluorescent plate reader. The metabolite concentration is measured using excitation wavelength of 485 nm and emission wavelength of 538 nm. Inhibition of aromatase by test compounds is expressed in percentage relative to positive controls. IC50 values for the test compounds are derived from non-liner curve fitting. • (1) Cofactor/Dilution buffer: 50 mM phosphate buffer, pH=7.4; 1× NADPH regenerating system A (20× stock, GENTEST, Cat. No. 451220); 1× NAPDH regenerating system B (100× stock, GENTEST, Cat. No. 451200) and 0.2 mg/mL control protein (Insect Cell Control Supersomes, GENTEST, Cat. No. 456200) • (2) Enzyme/Substrate Mix: 50 mM phosphate buffer, pH=7.4, 0.02 nmole/mL human aromatase protein (Human CYP19+P450 Reductase Supersomes, GENTEST, Cat. No. 456260); 0.4 μM dibenzylfluorescein (DBF, GENTEST, Cat. No. 451750, prepared at 2 mM concentration in acetonitrile); 0.5 mg/mL control protein (Insect Cell Control Supersomes, GENTEST, Cat. No. 456200).
row,Compound,aromatase inhibition
1,"COc1ccc(F)cc1C(C)(C)CC(O)(Cc1cc2ccncc2s1)C(F)(F)F (stereo not drawn) [1,1,1-Trifluoro-4-(5-fluoro-2-methoxyphenyl)-4-methyl-2-thieno[2,3-c]pyridin-2-ylmethylpentan-2-ol]",showed aromatase inhibition
2,"COc1ccc(F)cc1C(C)(C)CC(O)(Cc1cc2ncncc2[nH]1)C(F)(F)F (stereo not drawn) [1,1,1-Trifluoro-4-(5-fluoro-2-methoxyphenyl)-4-methyl-2-(5H-pyrrolo[3,2-d]pyrimidin-6-ylmethyl)pentan-2-ol]",showed aromatase inhibition
3,"COc1ccc(F)cc1C(C)(C)CC(O)(Cc1cc2cnccc2[nH]1)C(F)F (stereo not drawn) [1,1-Difluoro-4-(5-fluoro-2-methoxyphenyl)-4-methyl-2-(1H-pyrrolo[3,2-c]pyridin-2-ylmethyl)pentan-2-ol]",showed aromatase inhibition
4,"COc1cc(F)ccc1C(C)(C)CC(O)(Cc1cc2ccncc2[nH]1)C(F)(F)F (stereo not drawn) [1,1,1-Trifluoro-4-(4-fluoro-2-methoxyphenyl)-4-methyl-2-(1H-pyrrolo[2,3-c]pyridin-2-ylmethyl)pentan-2-ol]",showed aromatase inhibition
5,"CC(C)(CC(O)(Cc1cc2cnccc2[nH]1)C(F)(F)F)c1cccc(F)c1 (stereo not drawn) [1,1,1-Trifluoro-4-(3-fluorophenyl)-4-methyl-2-(1H-pyrrolo[3,2-c]pyridin-2-ylmethyl)pentan-2-ol]",showed aromatase inhibition
6,"CC(C)(CC(O)(Cc1cc2ccncc2[nH]1)C(F)(F)F)c1ccccc1 (stereo not drawn) [1,1,1-Trifluoro-4-methyl-4-phenyl-2-(1H-pyrrolo[2,3-c]pyridin-2-ylmethyl)pentan-2-ol]",showed aromatase inhibition
7,"CC(C)(CC(O)(Cc1cc2ccncc2[nH]1)C(F)(F)F)c1ccc(F)cc1 (stereo not drawn) [1,1,1-Trifluoro-4-(4-fluorophenyl)-4-methyl-2-(1H-pyrrolo[2,3-c]pyridin-2-ylmethyl)pentan-2-ol]",showed aromatase inhibition
8,"Cc1cc2c(c(C(C)(C)CC(O)(Cc3cc4ccncc4[nH]3)C(F)(F)F)c1)OCC2 (stereo not drawn) [1,1,1-Trifluoro-4-methyl-4-(5-methyl-2,3-dihydrobenzofuran-7-yl)-2-(1H-pyrrolo[2,3-c]pyridin-2-ylmethyl)pentan-2-ol]",showed aromatase inhibition
9,"CC(C)(CC(O)(Cc1cc2cnccc2[nH]1)C(F)(F)F)c1ccc(F)cc1 (stereo not drawn) [1,1,1-Trifluoro-4-(4-fluorophenyl)-4-methyl-2-(1H-pyrrolo [3,2-c]pyridin-2-ylmethyl)pentan-2-ol]",showed aromatase inhibition
10,"COc1ccc(F)cc1C(C)(C)CC(O)(Cc1[nH]c2ccncc2c1CN(C)C)C(F)(F)F (stereo not drawn) [2-(3-Dimethylaminomethyl-1H-pyrrolo[3,2-c]pyridin-2-ylmethyl)-1,1,1-trifluoro-4-(5-fluoro-2-methoxyphenyl)-4-methylpentan-2-ol]",showed aromatase inhibition
11,"CC(C)(CC(O)(Cc1cc2ccncc2[nH]1)C(F)(F)F)c1cccc(F)c1 (stereo not drawn) [1,1,1-Trifluoro-4-(3-fluorophenyl)-4-methyl-2-(1H-pyrrolo[2,3-c]pyridin-2-ylmethyl)pentan-2-ol]",showed aromatase inhibition
12,"Cc1ccc(F)cc1C(C)(C)CC(O)(Cc1cc2ncncc2[nH]1)C(F)(F)F (stereo not drawn) [1,1,1-Trifluoro-4-(5-fluoro-2-methylphenyl)-4-methyl-2-(5H-pyrrolo[3,2-d]pyrimidin-6-ylmethyl)pentan-2-ol]",showed aromatase inhibition
13,"COc1ccc(F)cc1C(C)(C)CC(O)(Cc1cc2ccncc2[nH]1)C1CC1 (stereo not drawn) [2-Cyclopropyl-4-(5-fluoro-2-methoxyphenyl)-4-methyl-1-(1H-pyrrolo[2,3-c]pyridin-2-yl)pentan-2-ol]",showed aromatase inhibition
14,"COc1ccc(F)cc1C(C)(C)CC(O)(Cc1cc2ccncc2[nH]1)C(F)(F)F (stereo not drawn) [1,1,1-Trifluoro-4-(5-fluoro-2-methoxyphenyl)-4-methyl-2-(1H-pyrrolo[2,3-c]pyridin-2-ylmethyl)pentan-2-ol]",showed aromatase inhibition
15,"CC(C)(CC(O)(Cc1cc2cnccc2[nH]1)C(F)(F)F)c1ccccc1 (stereo not drawn) [1,1,1-Trifluoro-4-methyl-4-phenyl-2-(1H-pyrrolo [3,2-c]pyridin-2-ylmethyl)pentan-2-ol]",showed aromatase inhibition
16,"COc1ccc(F)cc1C(C)(C)CC(O)(Cc1cc2cncnc2[nH]1)C(F)(F)F (stereo not drawn) [1,1,1-Trifluoro-4-(5-fluoro-2-methoxyphenyl)-4-methyl-2-(7H-pyrrolo[2,3-d]pyrimidin-6-ylmethyl)pentan-2-ol]",showed aromatase inhibition

# Continued, values first:
row,aromatase inhibition,Compound
1,showed aromatase inhibition,"CC(C)(CC(O)(Cc1cc2cnccc2[nH]1)C1CC1)c1cc(Cl)cc2c1OCC2 (stereo not drawn) [4-(5-Chloro-2,3-dihydrobenzofuran-7-yl)-2-cyclopropyl-4-methyl-1-(1H-pyrrolo[3,2-c]pyridin-2-yl)pentan-2-ol]"
2,showed aromatase inhibition,"CC(C)(CC(O)(Cc1cc2ccncc2[nH]1)C1CC1)c1cc(Cl)cc2c1OCC2 (stereo not drawn) [4-(5-Chloro-2,3-dihydrobenzofuran-7-yl)-2-cyclopropyl-4-methyl-1-(1H-pyrrolo[2,3-c]pyridin-2-yl)pentan-2-ol]"
3,showed aromatase inhibition,"COc1ccc(F)cc1C(C)(C)CC(O)(Cc1cc2ccncc2[nH]1)C(C)(C)C (stereo not drawn) [5-(5-Fluoro-2-methoxyphenyl)-2,2,5-trimethyl-3-(1H-pyrrolo[2,3-c]pyridin-2-ylmethyl)hexan-3-ol]"
4,showed aromatase inhibition,"Cc1ccc(F)cc1C(C)(C)CC(O)(Cc1cc2ccncc2[nH]1)C1CC1 (stereo not drawn) [2-Cyclopropyl-4-(5-fluoro-2-methylphenyl)-4-methyl-1-(1H-pyrrolo[2,3-c]pyridin-2-yl)pentan-2-ol]"
5,showed aromatase inhibition,"CC(C)(CC(O)(Cc1cc2cnccc2[nH]1)C(F)(F)F)c1ccc(F)cc1O (stereo not drawn) [5-Fluoro-2-[4,4,4-trifluoro-3-hydroxy-1,1-dimethyl-3-(1H-pyrrolo[3,2-c]pyridin-2-ylmethyl)butyl]phenol]"
6,showed aromatase inhibition,"Cc1ccc(F)cc1C(C)(C)CC(O)(Cc1cc2ccncc2[nH]1)C(C)C (stereo not drawn) [5-(5-Fluoro-2-methylphenyl)-2,5-dimethyl-3-(1H-pyrrolo[2,3-c]pyridin-2-ylmethyl)hexan-3-ol]"
7,showed aromatase inhibition,"Cc1ccc(F)cc1C(C)(C)CC(O)(Cc1cc2cnccc2[nH]1)C1CC1 (stereo not drawn) [2-Cyclopropyl-4-(5-fluoro-2-methylphenyl)-4-methyl-1-(1H-pyrrolo[3,2-c]pyridin-2-yl)pentan-2-ol]"
8,showed aromatase inhibition,"CC(C)(CC(O)(Cc1cc2cnccc2[nH]1)C(F)(F)F)c1cccc2c1OCC2 (stereo not drawn) [4-(2,3-Dihydrobenzofuran-7-yl)-1,1,1-trifluoro-4-methyl-2-(1H-pyrrolo[3,2-c]pyridin-2-ylmethyl)pentan-2-ol]"
9,showed aromatase inhibition,"CC(C)(CC(O)(Cc1cc2ccncc2[nH]1)C(F)(F)F)c1cccc2c1OCC2 (stereo not drawn) [4-(2,3-Dihydrobenzofuran-7-yl)-1,1,1-trifluoro-4-methyl-2-(1H-pyrrolo[2,3-c]pyridin-2-ylmethyl)pentan-2-ol]"
10,showed aromatase inhibition,"COc1ccc(F)cc1C(C)(C)CC(O)(Cc1cc2ccncc2[nH]1)C(C)C (stereo not drawn) [5-(5-Fluoro-2-methoxyphenyl)-2,5-dimethyl-3-(1H-pyrrolo[2,3-c]pyridin-2-ylmethyl)hexan-3-ol]"
11,showed aromatase inhibition,"COc1ccc(F)cc1C(C)(C)CC(O)(Cc1cc2cnccc2[nH]1)C(C)(C)C (stereo not drawn) [5-(5-Fluoro-2-methoxyphenyl)-2,2,5-trimethyl-3-(1H-pyrrolo[3,2-c]pyridin-2-ylmethyl)hexan-3-ol]"
